# Laboratory results as given in ChEMBL document CHEMBL4177718, “Discovery of molecular mechanism of a clinical herbal formula upregulating serum HDL-c levels in treatment of metabolic syndrome by in vivo and computational studies” (2018).
# Species on record: Rattus norvegicus
# Assay: Up-regulation of ABCA1 protein expression in serum of Wistar rat model of metabolic syndrome fed with high-sugar-fat-diet for 15 weeks followed by high-fat emulsion for 2 weeks by ELISA
# Type: functional
row,Compound,fold change (FC)
1,COc1cc(N)ccc1C(=O)/C=C/c1ccc(C)s1,1.5
2,CCc1ccc(/C=C/C(=O)c2ccc(N)cc2O)cc1,1.73
3,Nc1ccc(C(=O)/C=C/c2ccc(-c3ccccc3)cc2)c(O)c1,1.55
4,Nc1ccc(C(=O)/C=C/c2cccc(Oc3ccccc3)c2)c(O)c1,1.76
5,COc1ccc(-c2ccc(/C=C/C(=O)c3ccc(N)cc3O)s2)cc1,1.09
6,Nc1ccc(C(=O)/C=C/c2csc3ccccc23)c(O)c1,2.31
7,Nc1ccc(C(=O)/C=C/c2c[nH]c3ccccc23)c(O)c1,1.76
8,Nc1ccc(C(=O)/C=C/c2ccc3ccccc3c2)c(O)c1,2.64
9,Nc1ccc(C(=O)/C=C/c2ccc3c(c2)OCO3)c(O)c1,1.92
10,Cc1ccc(CCC(=O)c2ccc(N)cc2O)o1,1.9
11,Nc1ccc(C(=O)CCc2ccc3ccccc3c2)c(O)c1,1.34
12,COc1cc(N(C)C)ccc1C(=O)/C=C/c1ccc(C)o1,1.57
13,COc1cc(N(C)C)ccc1C(=O)/C=C/c1ccc2ccccc2c1,1.35
14,COc1cc(N)ccc1C(=O)/C=C/c1ccc2ccccc2c1,0.88
15,COc1cc(N)ccc1C(=O)/C=C/c1ccc(C)o1,1.2
16,CCOc1ccc(/C=C/C(=O)c2ccc(N)cc2OC)cc1,1.06
17,Cc1ccc(/C=C/C(=O)c2ccc(N(C)C)cc2O)o1,1.02
18,CC(=O)Nc1ccc(C(=O)/C=C/c2ccc(C)s2)c(O)c1,1.08
19,O=c1cc(-c2c[nH]c3ccccc23)oc2cc(O)ccc12,1.9
20,O=c1cc(-c2csc3ccccc23)oc2cc(O)ccc12,1.44
21,O=C(O)c1ccc(-c2cc(=O)c3ccc(O)cc3o2)cc1,1.66

row,Compound,fold change (FC)
1,CC(C)c1ccc(-c2cc(=O)c3ccc(O)cc3o2)cc1,1.22
2,O=c1cc(-c2cccc(Oc3ccccc3)c2)oc2cc(O)ccc12,1.17
3,O=c1cc(-c2ccc(-c3ccccc3)cc2)oc2cc(O)ccc12,1.15
4,COc1ccc(-c2ccc(-c3cc(=O)c4ccc(O)cc4o3)s2)cc1,1.03
5,Cc1ccc(-c2cc(=O)c3ccc(N)cc3o2)o1,1.3
6,Cc1ccc(-c2cc(=O)c3ccc(N)cc3o2)s1,1.47
7,CCOc1ccc(-c2cc(=O)c3ccc(N)cc3o2)cc1,1.37
8,Cc1ccc(/C=C/C(=O)c2ccc(N)cc2O)o1,2.09
9,Cc1ccc(/C=C/C(=O)c2ccc(N)cc2O)s1,2
10,CCOc1ccc(/C=C/C(=O)c2ccc(N)cc2O)cc1,1.92
11,CSc1ccc(/C=C/C(=O)c2ccc(N)cc2O)cc1,1.26
12,COc1cccc(/C=C/C(=O)c2ccc(N)cc2O)c1,2.09
13,Nc1ccc(C(=O)/C=C/c2ccc(F)cc2)c(O)c1,1.36
14,Nc1ccc(C(=O)/C=C/c2ccc(Cl)cc2)c(O)c1,1.16
15,Nc1ccc(C(=O)/C=C/c2cc(C(F)(F)F)cc(C(F)(F)F)c2)c(O)c1,1.12
16,COc1cc(/C=C/C(=O)c2ccc(N)cc2O)cc(OC)c1OC,0.98
17,CC(C)c1ccc(/C=C/C(=O)c2ccc(N)cc2O)cc1,2.05
18,O=c1cc(-c2ccc3ccccc3n2)oc2cc(O)ccc12,1.36
19,O=c1cc(-c2ccc3ccccc3c2)oc2cc(O)ccc12,1.57
20,COc1ccc(/C=C/C(=O)c2ccc(N)cc2O)cc1OC,1.86
